Measurements published in ChEMBL document CHEMBL1129874, “A SHORT AND EFFICIENT SYNTHESIS OF ZAMIFENACIN A MUSCARINIC M3 RECEPTOR ANTAGONIST” (Bioorg Med Chem Lett, 1997).
The source made the active and inactive calls.

How the values were obtained:
Canis familiaris = species on record: Canis familiaris; assay: Compound was tested for the inhibition of the gastrointestinal motility in dogs; Active; assay type: functional, organism-based; conditions: Canis lupus familiaris
[1] = target: T1, Muscarinic acetylcholine receptor M2 (Homo sapiens) (UniProt P08172); assay: Evaluated for the in vitro antagonistic activity against muscarinic M2 receptor; Active; assay type: functional
T1 sequence (whole entry): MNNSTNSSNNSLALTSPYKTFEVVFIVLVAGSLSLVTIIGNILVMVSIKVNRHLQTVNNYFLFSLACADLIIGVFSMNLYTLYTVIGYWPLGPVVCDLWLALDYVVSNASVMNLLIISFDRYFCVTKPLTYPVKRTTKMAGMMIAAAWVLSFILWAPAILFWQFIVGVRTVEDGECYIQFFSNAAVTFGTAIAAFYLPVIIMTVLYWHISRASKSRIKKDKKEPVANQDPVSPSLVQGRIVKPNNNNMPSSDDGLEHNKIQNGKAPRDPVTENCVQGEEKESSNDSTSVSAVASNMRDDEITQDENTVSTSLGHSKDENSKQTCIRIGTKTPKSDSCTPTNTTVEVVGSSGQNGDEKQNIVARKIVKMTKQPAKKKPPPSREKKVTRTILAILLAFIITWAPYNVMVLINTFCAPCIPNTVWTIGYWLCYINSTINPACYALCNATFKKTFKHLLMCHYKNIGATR

[2] = target: Muscarinic acetylcholine receptor M3 (Homo sapiens) (UniProt P20309); assay: Evaluated for the in vivo antagonistic activity against muscarinic M3 receptor; Active; assay type: functional, organism-based
Homo sapiens [3] = species on record: Homo sapiens; assay: Compound was tested for the inhibition of the small bowel motility in humans; Active; assay type: functional, organism-based
Homo sapiens [4] = species on record: Homo sapiens; assay: Compound was tested for the inhibition of the colonic motility in humans; Active; assay type: functional, organism-based

Measured: Activity

Sequence of Muscarinic acetylcholine receptor M3 (Homo sapiens) (P20309 whole entry, looked up): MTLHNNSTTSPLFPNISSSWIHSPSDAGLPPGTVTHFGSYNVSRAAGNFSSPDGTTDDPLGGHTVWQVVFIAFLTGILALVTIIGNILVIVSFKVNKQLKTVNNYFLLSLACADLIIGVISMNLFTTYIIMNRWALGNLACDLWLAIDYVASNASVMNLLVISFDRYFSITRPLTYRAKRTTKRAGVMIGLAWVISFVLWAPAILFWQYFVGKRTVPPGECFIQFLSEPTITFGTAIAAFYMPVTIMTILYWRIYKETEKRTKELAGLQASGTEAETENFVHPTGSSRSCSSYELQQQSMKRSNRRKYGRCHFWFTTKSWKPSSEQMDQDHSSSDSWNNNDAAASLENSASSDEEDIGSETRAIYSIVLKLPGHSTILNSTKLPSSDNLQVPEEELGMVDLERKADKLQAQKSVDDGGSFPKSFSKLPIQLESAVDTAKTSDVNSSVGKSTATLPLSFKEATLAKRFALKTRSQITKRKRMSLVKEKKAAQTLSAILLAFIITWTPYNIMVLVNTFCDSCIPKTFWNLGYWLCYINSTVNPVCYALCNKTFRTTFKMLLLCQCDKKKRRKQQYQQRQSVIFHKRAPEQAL

c1ccc(C(O[C@@H]2CCCN(CCc3ccc4c(c3)OCO4)C2)c2ccccc2)cc1
active: all assays above
